The results in this text go back to US20240376073A1 (Hoffmann-La Roche Inc., priority 2021, published 2024).

The structures appear in SMILES notation. Counter-ions that a name gives are not always drawn.

The first assay relates to Acinetobacter baumannii ATCC17961. The assay can be described thus: Antimicrobial susceptibility testing: 90% growth inhibitory concentration (IC90) determination. The format is cell-based. The following applies: Acinetobacter baumannii ATCC17961; Iso-Sensitest broth; growth by OD 600 nm over 16 h; 35±2° C.; read-out: ATCC 17961 IC90. As for the experimental part:
The in vitro antimicrobial activity of the compounds was determined according to the following procedure:
The assay used a 10-points Iso-Sensitest broth medium to measure quantitatively the in vitro activity of the compounds against Acinetobacter baumannii ATCC17961.
Stock compounds in DMSO were serially twofold diluted (e.g. range from 50 to 0.097 μM final concentration) in 384 wells microtiter plates and inoculated with 49 μl the bacterial suspension in Iso-Sensitest medium to have a final cell concentration of ˜5×10^(5) CFU/ml in a final volume/well of 50 ul/well. Microtiter plates were incubated at 35±2° C.
Bacterial cell growth was determined with the measurement of optical density at λ=600 nm each 20 minutes over a time course of 16 h. Growth inhibition was calculated during the logarithmic growth of the bacterial cells with determination of the concentration inhibiting 50% (IC50) and 90% (IC90) of the growth.
Table 1 provides the […] growth inhibitory concentrations (IC90) in micromoles per liter of the compounds of present invention obtained against the strain Acinetobacter baumannii ATCC17961.
For orientation: IC90 means the concentration at which the effect reaches the 90% level. As for `Cn1c(-c2ccc(OC(F)F)c(F)c2F)cnc1C(=O)Nc1ccc(C(=O)N2CCN(C(=O)C[N+]3(C)CCCC3)CC2)c(Cl)c1` [Example C25, N-[3-chloro-4-[4-[2-(1-methyl-pyrrolidin-1-ium-1-yl)acetyl]piper-azine-1-carbonyl]-phenyl]-5-[4-(difluorometh-oxy)-2,3-difluoro-phenyl]-1-methyl-imidazole-2-carboxamide; formate], the IC90 amounted to 43 nM. Turning to `COc1ccc(-c2cnc(C(=O)Nc3ccc(C(=O)N4CCN(CC[N+](C)(C)C)CC4)c(Cl)c3)n2C)c(F)c1F` [Example A9, 2-[4-[2-chloro-4-[[5-(2,3-difluoro-4-methoxy-phenyl)-1-methyl-imidazole-2-carbonyl]amino]benzoyl]piperazin-1-yl]ethyl-trimethyl-ammonium; iodide], the IC90 turned out to be 130 nM.

Consider `Cn1c(-c2ccc(OC(F)F)c(F)c2F)cnc1C(=O)Nc1ccc(C(=O)N2CCN(C(=O)C3CC[N+](C)(CC4CNC4)CC3)CC2)c(F)c1` (stereo not shown) [Example C42, N-[4-[4-[1-(azet-idin-3-ylmethyl)-1-methyl-piper-idin-1-ium-4-carbonyl]piper-azine-1-carbon-yl]-3-fluoro-phenyl]-5-[4-(difluorometh-oxy)-2,3-difluoro-phenyl]-1-methyl-imidazole-2-car-boxamide; 2,2,2-trifluoroacetate; 2,2,2-trifluoro-acetic acid], for which the concentration for an effect of 90% (IC90) turned out to be 100 nM. On the same count and under the same terms, the result for `Cc1cc(NC(=O)c2ncc(-c3ccc(OCC#N)c(F)c3F)n2C)ccc1C(=O)N1CCN(C(=O)C[N+](C)(C)C)CC1` [Example A8, [2-[4-[4-[[5-[4-(cyanomethoxy)-2,3-difluoro-phenyl]-1-methyl-imidazole-2-carbonyl]amino]-2-methyl-benzoyl]piperazin-1-yl]-2-oxo-ethyl]-trimethyl-ammonium; iodide] reads 310 nM.

In the case of `COc1ccc(-c2cnc(C(=O)Nc3ccc(C(=O)NCc4cnc(NC(=O)C5CC[N+](C)(CC(N)=O)CC5)s4)c(Cl)c3)n2C)c(F)c1F` (stereo not shown) [Example A30, 1-(2-amino-2-oxo-ethyl)-N-[5-[[[2-chloro-4-[[5-(2,3-difluoro-4-methoxy-phenyl)-1-methyl-imidazole-2-carbonyl]amino]benzoyl]amino]methyl]thiazol-2-yl]-1-methyl-piperidin-1-ium-4-carboxamide; formate], the IC90 was determined as 140 nM. On the same count and under the same terms, the result for `COc1ccc(-c2cnc(C(=O)Nc3ccc(C(=O)N4CCN(C(=O)C[N+](C)(C)C)CC4)c(Cl)c3)n2C)c(F)c1F` [Example B20, [2-[4-[2-chloro-4-[[5-(2,3-difluoro-4-methoxy-phenyl)-1-methyl-imidazole-2-carbonyl]amino]benzoyl]piperazin-1-yl]-2-oxo-ethyl]-trimethyl-ammonium; formate] reads 76 nM; that for `Cc1cc(NC(=O)c2ncc(-c3ccc(OCC#N)c(F)c3F)n2C)ccc1C(=O)N1CCN(C(=O)N[C@H]2C[N+](C)(C)C[C@@H]2O)CC1` [Example B29, (3S,4S)-3-(4-(4-(5-(4-(cyanomethoxy)-2,3-difluorophenyl)-1-methyl-1H-imidazole-2-carboxamido)-2-methylbenzoyl)piperazine-1-carboxamido)-4-hydroxy-1,1-dimethylpyrrolidin-1-ium formate], 250 nM; that for `COc1ccc(-c2cnc(C(=O)Nc3ccc(C(=O)N4CCN(C(=O)[C@@H]5C[C@@H](O)C[N+]5(C)C)CC4)c(Cl)c3)n2C)c(F)c1F` [Example B25, (2S,4R)-2-(4-(2-chloro-4-(5-(2,3-difluoro-4-methoxyphenyl)-1-methyl-1H-imidazole-2-carboxamido)benzoyl)piperazine-1-carbonyl)-4-hydroxy-1,1-dimethylpyrrolidin-1-ium formate], 120 nM.

As for `COc1ccc(-c2cnc(C(=O)Nc3ccc(C(=O)N4CCN(C(=O)C5CCN(C(=O)C[N+](C)(C)C)CC5)CC4)c(Cl)c3)n2C)c(F)c1F` [Example C6, [2-[4-[4-[2-chloro-4-[5-(2,3-difluoro-4-methoxy-phen-yl)-1-methyl-imidazole-2-carbonyl]amino]-benzoyl]piper-azine-1-carbon-yl]-1-piperidyl]-2-oxo-ethyl]-trimethyl-ammonium; formate], the IC90 was 160 nM. Turning to `COc1ccc(-c2cnc(C(=O)Nc3ccc(C(=O)NCc4cn(CCC#N)[n+](C)c4)c(Cl)c3)n2C)c(F)c1F` [Example A22, N-[3-chloro-4-[1-(2-cyanoethyl)-2-methyl-pyrazol-2-ium-4-yl]methylcarbamoyl]phenyl]-5-(2,3-difluoro-4-methoxy-phenyl)-1-methyl-imidazole-2-carboxamide; formate], the 90% effect concentration (IC90) was 390 nM. On the same count and under the same terms, next, `COc1ccc(-c2cnc(C(=O)Nc3ccc(C(=O)NCc4cnn(CC5C[N+](C)(C)C5)c4)c(Cl)c3)n2C)c(F)c1F` [Example C22, N-[3-chloro-4-[[1-[(1,1-dimethylazetidin-1-ium-3-yl)methyl]pyrazol-4-yl]methylcarbamoyl]phenyl]-5-(2,3-difluoro-4-methoxy-phenyl)-1-methyl-imidazole-2-carboxamide;formate]: 230 nM; `COc1ccc(-c2cnc(C(=O)Nc3ccc(C(=O)N4CCN(C(=O)C5CC[N+](C)(CC(N)=O)CC5)CC4)c(Cl)c3)n2C)c(Cl)c1F` (stereo not shown) [Example C3, N-[4-[4-[1-(2-amino-2-oxo-ethyl)-1-methyl-piperidin-1-ium-4-carbonyl]-piperazine-1-carbonyl]-3-chloro-phenyl]-5-(2-chloro-3-fluoro-4-meth-oxy-phenyl)-1-methyl-imid-azole-2-carbox-amide; formate]: 57 nM.

Still in this assay, the particulars now being: Acinetobacter baumannii, ATCC17961, 16 h, read-out: ATCC 17961 IC90, Acinetobacter baumannii ATCC17961; Iso-Sensitest broth; growth by OD 600 nm over 16 h; 35±2° C.
Take `COc1ccc(-c2cnc(C(=O)Nc3ccc(C(=O)N4CCN(C(=O)N5CC[N+](C)(CC(=O)O)CC5)CC4)c(Cl)c3)n2C)c(F)c1F` [Example C36, 2-[4-[4-[2-chloro-4-[[5-(2,3-difluoro-4-methoxy-phenyl)-1-methyl-imidazole-2-carbonyl]amino]benzoyl]piperazine-1-carbonyl]-1-methyl-piperazin-1-ium-1-yl]acetic acid formate]: the IC90 is 1100 nM.

On to `COc1ccc(-c2cnc(C(=O)Nc3ccc(C(=O)N4CCN(C(=O)N5CC[N+](CCCN)(CC(=O)O)CC5)CC4)c(Cl)c3)n2C)c(F)c1F` [Example C38, 2-[1-(3-aminopropyl)-4-[4-[2-chloro-4-[[5-(2,3-difluoro-4-methoxy-phenyl)-1-methyl-imidazole-2-carbonyl]amino]benzoyl]piperazine-1-carbonyl]piperazin-1-ium-1-yl]acetic acid formate], for which the IC90 is 730 nM.

For `Cn1c(-c2ccc(OC(F)F)c(F)c2Cl)cnc1C(=O)Nc1ccc(C(=O)N2CCN(C(=O)C3CC[N+](CC(N)=O)(CC(N)=O)CC3)CC2)c(Cl)c1` [Example C9, N-[4-[4-[1,1-bis(2-amino-2-oxo-ethyl)piper-idin-1-ium-4-carbonyl]piper-azine-1-carbon-yl]-3-chloro-phenyl]-5-[2-chloro-4-(difluorometh-oxy)-3-fluoro-phenyl]-1-methyl-imid-azole-2-carbox-amide; formate], the IC90 stood at 120 nM. In the case of `COc1ccc(-c2cnc(C(=O)Nc3ccc(C(=O)N4CCN(C(=O)NC5C[N+](C)(C)CC5O)CC4)c(Cl)c3)n2C)c(F)c1F` (stereo not shown) [Example B39, 4-[2-chloro-4-[[5-(2,3-difluoro-4-methoxy-phenyl)-1-methyl-imidazole-2-carbonyl]amino]benzoyl]-N-(4-hydroxy-1,1-dimethyl-pyrrolidin-1-ium-3-yl)piperazine-1-carboxamide; formate], the 90% effect concentration (IC90) came out at 110 nM. Consider `COc1ccc(-c2cnc(C(=O)Nc3ccc(C(=O)N4CCN(C(=O)[C@@H]5C[C@@H](O)C[N+]5(C)C)CC4)c(Cl)c3)n2C)c(F)c1C#N` [Example B51, N-[3-chloro-4-[4-[(2S,4R)-4-hydroxy-1,1-dimethyl-pyrrolidin-1-ium-2-carbonyl]piperazine-1-carbonyl]phenyl]-5-(3-cyano-2-fluoro-4-methoxy-phenyl)-1-methyl-imidazole-2-carboxamide; formate], for which the 90% effect concentration (IC90) came out at 540 nM.

On to `COc1ccc(-c2cnc(C(=O)Nc3ccc(C(=O)N4CCN(C(=O)[C@@H]5C[C@@H](O)C[N+]5(C)C)CC4)c(Cl)c3)n2C)c(F)c1C(F)(F)F` [Example B52, N-[3-chloro-4-[4-[(2S,4R)-4-hydroxy-1,1-dimethyl-pyrrolidin-1-ium-2-carbonyl]piperazine-1-carbonyl]phenyl]-5-[2-fluoro-4-methoxy-3-(trifluoromethyl)phenyl]-1-methyl-imidazole-2-carboxamide; formate], for which the IC90 is 520 nM.

Still in this assay, the particulars now being: read-out: ATCC 17961 IC90; Acinetobacter baumannii ATCC17961; Iso-Sensitest broth; growth by OD 600 nm over 16 h; 35±2° C.; formate.
`COc1ccc(-c2cnc(C(=O)Nc3ccc(C(=O)N4CCN(C(=O)C5C[C@H](O)C[N+]5(C)C)CC4)c(Cl)c3)n2C)c(F)c1F` (stereo in doubt) [Example B37, N-[3-chloro-4-[4-[(2R,4S)-4-hydroxy-1,1-dimethyl-pyrrolidin-1-ium-2-carbonyl]piperazine-1-carbonyl]phenyl]-5-(2,3-difluoro-4-methoxy-phenyl)-1-methyl-imidazole-2-carboxamide; formate]: the IC90 came to 190 nM.
